Results as given in patent publication US9302993B2, “8-hydroxy quinoline derivatives” (PRANA BIOTECHNOLOGY LIMITED, priority 2002, dated 2016).

How the values were obtained:
[1] = system: APP2576 transgenic mouse; details: previous studies on transgenic mice, 20-30 mg/kg orally daily five days per week, 2-3 months; cited from earlier work
[2] = system: moderately severe AD patients; experiment: Phase II clinical trial of PBT-1 in Alzheimer's disease (Example 21); type: in vivo, human; details: for Steady state pre-dose levels of PBT-1: blood; for difference in mean change from baseline ADAS-cog score of PBT-1 over placebo: more-severely affected groups
Source text: The performance of the less-severely affected group (ADAS-cog<25) deteriorated negligibly over this interval, so cognitive changes could not be discriminated in this stratum.
The study took place at the AD clinical trials unit, Mental Health Research Institute of Victoria and at the Royal Melbourne Hospital. Criteria for inclusion in the study were: informed consent; a diagnosis of probable AD by NINCDS-ADRDA criteria (McKhann et al., 1984); AD Assessment Scale-cognitive (ADAS-cog) (Rosen et al., 1984) score of 18-45; Mini Mental State Examination (MMSE) (Folstein et al., 1975) score of 10-24; on donepezil 5 mg or 10 mg for at least 6 months; relative or carrier willing and able to support the trial; able to complete trial examinations; primary sensorial functions intact.
The study was a double blind, placebo-controlled, parallel group randomized design. […] The duration of the study was 36 weeks.
Screening procedures consisted of a complete medical history, physical, neurological and ophthalmic examination, blood and urine tests and psychometric tests (ADAS-cog, MMSE). Nerve conduction tests and visual evoked responses were conducted between the screening and baseline visits to provide a baseline measurement. Blood was collected for ApoE allotyping, baseline plasma levels of metals and Aβ prior to randomization. All patients continued their study entry dose of donepezil and all patients received 100 mg vitamin B12 intramuscularly every four weeks.
Blood samples were collected by antecubital venepuncture except on weeks 12, 24 and 36 when they were collected by an indwelling catheter. […] Zn data from these intervals were therefore omitted from analysis.
The primary clinical efficacy variable was a change from baseline score on the ADAS-cog conducted at baseline and at weeks 4, 12, 24 and 36. This measure was chosen to allow comparability of treatment effects with current therapeutics such as donepezil, where efficacy trials also used ADAS-cog as their primary outcome measure (Rogers et al., 1998). Although numerous neuropsychological tests could be considered as secondary measures, it was necessary to avoid fatiguing the subjects at review. Therefore the only other cognitive test was the Mini-Mental State Exam (MMSE). The CIBIC+ (clinician interview based impression of change incorporating caregiver information), a subjective observational index was also conducted. Plasma Aβ, and plasma zinc and copper were all taken every four weeks.
Polystyrene plates were coated with mAb G210 (for Aβ40) or mAb G211 (for Aβ42). Plates were washed and biotinylated mAb WO2 was added. Bound antibody was detected with streptavidin-labelled Europium (Perkin Elmer, Vic Australia). The values obtained from triplicated wells were calculated based on standard curves generated on each plate. Plasma samples supplemented with synthetic Aβ1-40 and Aβ1-42 were also assayed to confirm measurement reliability across the concentration range of interest.
Metals were measured by inductively coupled plasma mass spectrometry as previously described (Cherny et al., 2001).
Standard adverse event reporting was conducted and biochemical tests, renal and liver function, complete blood examination, serum vitamin B12 and folate levels were documented at each visit. To assess for peripheral and optic neuropathy a neurological examination was conducted at each visit, and visual evoked responses, nerve conduction studies and ophthalmic examination were conducted at screening, week 16 and prior to the final trial visit. An ECG was done at screening and weeks 12, 24 and 36.
Data monitoring and management were undertaken by independent contractors (Kendle International and Health Research Solutions, Melbourne). Evidence for efficacy was indicated by a significant difference in change from baseline between treatment arms. […]

Oc1c(I)cc(Cl)c2cccnc12 [PBT-1]
inhibiting Aβ accumulation [1]: markedly effective | effect on plasma Cu ([2]; AD patients): no effect | elevation of total plasma Zn ([2]; AD patients): ≈ 30% | Steady state pre-dose levels of PBT-1 ([2]; total daily dosage 250 mg): 4.03 ± 2.10 µg/mL | Steady state pre-dose levels of PBT-1 ([2]; total daily dosage 500 mg): 6.74 ± 3.70 µg/mL | Steady state pre-dose levels of PBT-1 ([2]; total daily dosage 750 mg): 7.60 ± 2.15 µg/mL | Plasma Aβ42 change from baseline ([2]; from week 20 onwards): significant decline from baseline | difference in mean change from baseline ADAS-cog score of PBT-1 over placebo ([2]; week 24): 7.37 | difference in mean change from baseline ADAS-cog score of PBT-1 over placebo ([2]; week 36): 6.36 | effect of treatment in preventing cognitive deterioration ([2]; over 36 weeks, more-severely affected patients (baseline ADAS-cog≧25)): statistically significant
